Assay results taken from the NIST ThermoML archive (doi:10.1021/je4003256).
± gives the expanded uncertainty stated by the source.

Conditions: 101.33 kPa, Liquid; for speed of sound: Pulse-echo method; for mass density: Vibrating tube method

| SMILES | speed of sound (293.15 K) [m/s] | mass density (293.15 K) [kg/m3] | speed of sound (298.15 K) [m/s] | mass density (298.15 K) [kg/m3] | speed of sound (303.15 K) [m/s] | mass density (303.15 K) [kg/m3] | speed of sound (308.15 K) [m/s] | mass density (308.15 K) [kg/m3] | speed of sound (318.15 K) [m/s] | mass density (318.15 K) [kg/m3] | speed of sound (323.15 K) [m/s] | mass density (323.15 K) [kg/m3] | speed of sound (328.15 K) [m/s] | mass density (328.15 K) [kg/m3] | speed of sound (333.15 K) [m/s] | mass density (333.15 K) [kg/m3] | speed of sound (338.15 K) [m/s] | mass density (338.15 K) [kg/m3] | speed of sound (343.15 K) [m/s] | mass density (343.15 K) [kg/m3] | also measured |
| --- | --- | --- | --- | --- | --- | --- | --- | --- | --- | --- | --- | --- | --- | --- | --- | --- | --- | --- | --- | --- | --- |
| C=CCc1ccc(O)c(OC)c1 [2-hydroxy-5-allylanisole] | 1497 ± 1.3 | 1066.48 ± 0.28 | 1478.7 ± 1.3 | 1062.06 ± 0.28 | 1460.3 ± 1.3 | 1057.64 ± 0.28 | 1442.2 ± 1.3 | 1053.21 ± 0.27 | 1406.1 ± 1.2 | 1044.35 ± 0.27 | 1388.2 ± 1.2 | 1039.92 ± 0.26 | 1370.5 ± 1.2 | 1035.48 ± 0.26 | 1352.8 ± 1.2 | 1031.04 ± 0.25 | 1335.2 ± 1.2 | 1026.6 ± 0.25 | 1317.8 ± 1.2 | 1022.15 ± 0.25 | speed of sound (288.15 K): 1515.3 ± 1.3 m/s; mass density (288.15 K): 1070.9 ± 0.29 kg/m3; speed of sound (313.15 K): 1424.1 ± 1.3 m/s; mass density (313.15 K): 1048.78 ± 0.27 kg/m3 |
| COc1ccccc1O [2-methoxyphenol] | 1548.3 ± 1.3 | 1133.81 ± 0.34 | 1528.7 ± 1.3 | 1128.96 ± 0.34 | 1509.3 ± 1.3 | 1124.11 ± 0.33 | 1490 ± 1.3 | 1119.25 ± 0.33 | 1451.5 ± 1.3 | 1109.51 ± 0.32 | 1432.4 ± 1.3 | 1104.63 ± 0.32 | 1413.5 ± 1.3 | 1099.74 ± 0.31 | 1394.6 ± 1.2 | 1094.84 ± 0.31 | 1375.8 ± 1.2 | 1089.94 ± 0.3 | 1357.1 ± 1.2 | 1085.02 ± 0.3 | speed of sound (288.15 K): 1567.6 ± 1.3 m/s; mass density (288.15 K): 1138.64 ± 0.34 kg/m3; speed of sound (313.15 K): 1470.7 ± 1.3 m/s; mass density (313.15 K): 1114.38 ± 0.32 kg/m3 |
| Cc1ccccc1O [2-methylphenol] | 1522.6 ± 1.3 | 1045.77 ± 0.27 | 1505.5 ± 1.3 | 1041.41 ± 0.26 | 1488.2 ± 1.3 | 1037.05 ± 0.26 | 1470.2 ± 1.3 | 1032.64 ± 0.26 | 1435.2 ± 1.3 | 1023.83 ± 0.25 | 1417.7 ± 1.3 | 1019.39 ± 0.24 | 1400.2 ± 1.2 | 1014.93 ± 0.24 | 1382.8 ± 1.2 | 1010.46 ± 0.24 | 1365.3 ± 1.2 | 1005.97 ± 0.23 | 1347.7 ± 1.2 | 1001.46 ± 0.23 | speed of sound (313.15 K): 1452.7 ± 1.3 m/s; mass density (313.15 K): 1028.25 ± 0.25 kg/m3 |
| Cc1cccc(O)c1 [3-methylphenol] | 1497.9 ± 1.3 | 1033.84 ± 0.26 | 1481.9 ± 1.3 | 1029.91 ± 0.25 | 1466.2 ± 1.3 | 1025.96 ± 0.25 | 1450.5 ± 1.3 | 1021.99 ± 0.25 | 1419.5 ± 1.3 | 1013.99 ± 0.24 | 1403.9 ± 1.2 | 1009.97 ± 0.24 | 1388.4 ± 1.2 | 1005.91 ± 0.23 | 1372.9 ± 1.2 | 1001.84 ± 0.23 | 1357.3 ± 1.2 | 997.743 ± 0.23 | 1341.8 ± 1.2 | 993.626 ± 0.23 | speed of sound (313.15 K): 1435 ± 1.3 m/s; mass density (313.15 K): 1018 ± 0.24 kg/m3 |
| Cc1ccc(O)cc1 [4-methylphenol] | 1502.9 ± 2.1 | 1034.09 ± 0.91 | 1487.2 ± 2.1 | 1030.25 ± 0.9 | 1471.4 ± 2.1 | 1026.39 ± 0.89 | 1455.6 ± 2.1 | 1022.5 ± 0.88 | 1424.3 ± 2.1 | 1014.66 ± 0.87 | 1408.7 ± 2.1 | 1010.7 ± 0.86 | 1393 ± 2.1 | 1006.72 ± 0.85 | 1377.4 ± 2.1 | 1002.7 ± 0.84 | 1361.8 ± 2.1 | 998.659 ± 0.84 | 1346.2 ± 2.1 | 994.587 ± 0.83 | speed of sound (313.15 K): 1440 ± 2.1 m/s; mass density (313.15 K): 1018.59 ± 0.88 kg/m3 |
| COC(=O)c1ccccc1O [methyl 2-hydroxybenzoate] | 1429.1 ± 1.3 | 1184.33 ± 0.38 | 1410.6 ± 1.3 | 1179.34 ± 0.38 | 1392.3 ± 1.2 | 1174.35 ± 0.37 | 1374 ± 1.2 | 1169.37 ± 0.37 | 1338.1 ± 1.2 | 1159.4 ± 0.36 | 1320.4 ± 1.2 | 1154.42 ± 0.36 | 1302.8 ± 1.2 | 1149.45 ± 0.35 | 1285.4 ± 1.2 | 1144.46 ± 0.35 | 1268.1 ± 1.2 | 1139.47 ± 0.34 | 1250.9 ± 1.2 | 1134.49 ± 0.34 | speed of sound (288.15 K): 1447.6 ± 1.3 m/s; mass density (288.15 K): 1189.32 ± 0.39 kg/m3; speed of sound (313.15 K): 1356 ± 1.2 m/s; mass density (313.15 K): 1164.38 ± 0.36 kg/m3 |
| Oc1ccccc1 [phenol] | – | – | – | – | – | – | – | – | 1437.2 ± 1.3 | 1054.1 ± 0.27 | 1422.1 ± 1.3 | 1049.81 ± 0.27 | 1406.8 ± 1.2 | 1045.5 ± 0.27 | 1391.4 ± 1.2 | 1041.16 ± 0.26 | 1376.1 ± 1.2 | 1036.79 ± 0.26 | 1360.6 ± 1.2 | 1032.4 ± 0.26 | – |
